Patent US7785828B1 (priority 2003, dated 2010)
Read-outs that look alike come from different tables or passages of the source.

What was measured:
Type in all cases: cell-based
[1] = test system: Fusarium graminearum
[2] = test system: Mycosphaerella fijiensis
[3] = test system: Septoria tritici
[4] = test system: Fusarium graminearum
[5] = Table 2C (mixed diversity library), improvement compared to reference defensin protein DmAMP
[6] = Table 2B (Dm-AMP1 based libraries), improvement compared to reference defensin protein (Rs-AFP2 for Table 2B [sic])

## NLCERASKTWSGNCGNTKHCDNQCRSWEGAKHGACHVRSGKHKCFCYFNC (Defensin like) [L9-16]
[1]
  Antifungal activity, Fusarium graminearum (improvement compared to DmAMP1): +++ (key: + indicating 1- to 5-fold improvement compared to DmAMP1; ++ indicating >5- to 10-fold improvement; +++ indicating >10-fold improvement)
[2]
  Antifungal activity, Mycosphaerella fijiensis (improvement compared to DmAMP1): + (key: + indicating 1- to 5-fold improvement compared to DmAMP1; ++ indicating >5- to 10-fold improvement; +++ indicating >10-fold improvement)
[3]
  Antifungal activity, Septoria tritici (improvement compared to DmAMP1): ++ (key: + indicating 1- to 5-fold improvement compared to DmAMP1; ++ indicating >5- to 10-fold improvement; +++ indicating >10-fold improvement)

## NLCERASKTWTGNCGNTKHCDNQCKSWEGAAHGACHVRNGKHKCFCYFNC (Defensin like) [L5-24]
[1]
  Antifungal activity, Fusarium graminearum (improvement compared to DmAMP1): +++ (key: + indicating 1- to 5-fold improvement compared to DmAMP1; ++ indicating >5- to 10-fold improvement; +++ indicating >10-fold improvement)
[2]
  Antifungal activity, Mycosphaerella fijiensis (improvement compared to DmAMP1): + (key: + indicating 1- to 5-fold improvement compared to DmAMP1; ++ indicating >5- to 10-fold improvement; +++ indicating >10-fold improvement)
[3]
  Antifungal activity, Septoria tritici (improvement compared to DmAMP1): ++ (key: + indicating 1- to 5-fold improvement compared to DmAMP1; ++ indicating >5- to 10-fold improvement; +++ indicating >10-fold improvement)

## NLCERASKTWSGNCGNTKHCDNQCKNWEGAKHGACHVRNGKHKCFCYFNC [L6-60] (Defensin like)
[1]
  Antifungal activity, Fusarium graminearum (improvement compared to DmAMP1): +++ (key: + indicating 1- to 5-fold improvement compared to DmAMP1; ++ indicating >5- to 10-fold improvement; +++ indicating >10-fold improvement)
[2]
  Antifungal activity, Mycosphaerella fijiensis (improvement compared to DmAMP1): + (key: + indicating 1- to 5-fold improvement compared to DmAMP1; ++ indicating >5- to 10-fold improvement; +++ indicating >10-fold improvement)
[3]
  Antifungal activity, Septoria tritici (improvement compared to DmAMP1): +++ (key: + indicating 1- to 5-fold improvement compared to DmAMP1; ++ indicating >5- to 10-fold improvement; +++ indicating >10-fold improvement)

## NLCERASKTWSGNCGNTKHCDTQCRNWEGAKHGACHKRNGKWKCFCYFNC (Defensin like) [L9-32]
[1]
  Antifungal activity, Fusarium graminearum (improvement compared to DmAMP1): ++ (key: + indicating 1- to 5-fold improvement compared to DmAMP1; ++ indicating >5- to 10-fold improvement; +++ indicating >10-fold improvement)
[2]
  Antifungal activity, Mycosphaerella fijiensis (improvement compared to DmAMP1): + (key: + indicating 1- to 5-fold improvement compared to DmAMP1; ++ indicating >5- to 10-fold improvement; +++ indicating >10-fold improvement)
[3]
  Antifungal activity, Septoria tritici (improvement compared to DmAMP1): + (key: + indicating 1- to 5-fold improvement compared to DmAMP1; ++ indicating >5- to 10-fold improvement; +++ indicating >10-fold improvement)

## NLCERASKTWSGNCGNTKHCDNQCRNWEGAAHGACHVRNGKHKCFCYFNC (Defensin like) [L6-59]
[2]
  Antifungal activity, Mycosphaerella fijiensis (improvement compared to DmAMP1): + (key: + indicating 1- to 5-fold improvement compared to DmAMP1; ++ indicating >5- to 10-fold improvement; +++ indicating >10-fold improvement)
[3]
  Antifungal activity, Septoria tritici (improvement compared to DmAMP1): + (key: + indicating 1- to 5-fold improvement compared to DmAMP1; ++ indicating >5- to 10-fold improvement; +++ indicating >10-fold improvement)

## DGVKLCERASKTWTGNCGNTKHCDKQCKNWEGAKHGACHKRNGKWKCFCYFNC (Defensin like) [L7-107]
[4]; [5]
  Activity (1): antifungal activity of the NP against Fusarium graminearium: + (+ indicates a 1- to 5-fold improvement in activity compared to a reference defensin protein)

## NLCERASKTWTGNCGNTKHCDTQCRSWEGAKHGACHKRNGKWKCFCYFNC (Defensin like) [L10-14]
[4]; [6]
  Activity (1): antifungal activity of the NP against Fusarium graminearium: ++ (++ indicates a >5- to 10-fold improvement)

## NLCERASKTWTGNCGNTKHCDNQCRNWEGAKHGACHVRNGKWKCFCYFNC (Defensin like) [L6-07]
[4]; [6]
  Activity (1): antifungal activity of the NP against Fusarium graminearium: +++ (+++ indicates a >10-fold improvement)

## NLCERASKTWTGNCGNTKHCDTQCKNWEGAKHGACHVRNGKWKCFCYFNC (Defensin like) [L6-77]
[4]; [6]
  Activity (1): antifungal activity of the NP against Fusarium graminearium: ++ (++ indicates a >5- to 10-fold improvement)

## NLCERASKTWTGNCGNTKHCDTQCKIWEGAKHGACHKRSGKWKCFCYFNC (Defensin like) [L3-77]
[4]; [6]
  Activity (1): antifungal activity of the NP against Fusarium graminearium: ++ (++ indicates a >5- to 10-fold improvement)

## NLCERASKTWTGNCGNTKHCDNQCRSWEGAKHGACHKRSGKWKCFCYFNC (Defensin like) [L10-77]
[4]; [6]
  Activity (1): antifungal activity of the NP against Fusarium graminearium: ++ (++ indicates a >5- to 10-fold improvement)

## NLCERASKTWTGNCGNTKHCDTQCRNWEGAKHGACHKRSGKWKCFCYFNC (Defensin like) [L6-33]
[4]; [6]
  Activity (1): antifungal activity of the NP against Fusarium graminearium: ++ (++ indicates a >5- to 10-fold improvement)

## DGVKLCERASKTWTGHCGNTKHCDKQCKNWEKAAHGACHVRNGKWKCFCYFNC (DGVKLCERASKTWSGHCGNTKHCDKQCKNWEKAAHGACHVRNGKWKCFCYFSC; Defensin like) [L7-93]
[4]; [5]
  Activity (1): antifungal activity of the NP against Fusarium graminearium: +++ (+++ indicates a >10-fold improvement)

## NLCERASKTWAGNCGNTKHCDNQCRSWEGAKHGACHVRNGKWKCFCYFNC (Defensin like) [L10-33]
[4]; [6]
  Activity (1): antifungal activity of the NP against Fusarium graminearium: + (+ indicates a 1- to 5-fold improvement in activity compared to a reference defensin protein)

## NLCERASKTWTGNCGNTKHCDNQCRNWEGAAHGACHKRNGKWKCFCYFNC (Defensin like) [L6-45]
[4]; [6]
  Activity (1): antifungal activity of the NP against Fusarium graminearium: ++ (++ indicates a >5- to 10-fold improvement)

## --QKLCEKASKTWTGNCGNTKHCDKQCRSWEKAKHGACHVRNGKWKCFCYFNC (Defensin like) [L7-59]
[4]; [5]
  Activity (1): antifungal activity of the NP against Fusarium graminearium: ++ (++ indicates a >5- to 10-fold improvement)

## DGVKLCERPSQTWSGNCGNTKHCDKQCRNWEKAKHGACHKRNGKWKCFCYFNC (Defensin like) [L7-123]
[4]; [5]
  Activity (1): antifungal activity of the NP against Fusarium graminearium: + (+ indicates a 1- to 5-fold improvement in activity compared to a reference defensin protein)

## NLCERASKTWTGNCGNTKHCDNQCKNWEGAKHGACHVRNGKWKCFCYFNC (Defensin like) [L6-03]
[4]; [6]
  Activity (1): antifungal activity of the NP against Fusarium graminearium: +++ (+++ indicates a >10-fold improvement)

## NLCERASKTWTGNCGNTKHCDNQCKNWEGAKHGACHVRSGKHKCFCYFNC (Defensin like) [L6-23]
[4]; [6]
  Activity (1): antifungal activity of the NP against Fusarium graminearium: ++ (++ indicates a >5- to 10-fold improvement)

## NLCERASKTWTGNCGNTKHCDTQCKSWEGAKHGACHVRSGKHKCFCYFNC (Defensin like) [L5-36]
[4]; [6]
  Activity (1): antifungal activity of the NP against Fusarium graminearium: + (+ indicates a 1- to 5-fold improvement in activity compared to a reference defensin protein)

## NLCERASKTWTGNCGNTKHCDNQCRNWEGAKHGACHVRSGKWKCFCYFNC (Defensin like) [L10-79]
[4]; [6]
  Activity (1): antifungal activity of the NP against Fusarium graminearium: ++ (++ indicates a >5- to 10-fold improvement)

## NLCERASKTWTGNCGNTKHCDTQCKNWESAKHGACHVRSGKHKCFCYFNC (Defensin like) [L3-28]
[4]; [6]
  Activity (1): antifungal activity of the NP against Fusarium graminearium: ++ (++ indicates a >5- to 10-fold improvement)

## NLCERASKTWTGNCGNTKHCDNQCKSWEGAKHGACHKRNGKWKCFCYFNC (Defensin like) [L10-51]
[4]; [6]
  Activity (1): antifungal activity of the NP against Fusarium graminearium: ++ (++ indicates a >5- to 10-fold improvement)

## DGVKLCEKASQTWTGNCGNTKHCDNQCKNWEKAKHGACHKRSGKWKCFCYFNC (Defensin like) [L7-42]
[4]; [5]
  Activity (1): antifungal activity of the NP against Fusarium graminearium: + (+ indicates a 1- to 5-fold improvement in activity compared to a reference defensin protein)

## NLCERASKTWTGNCGNTKHCDNQCKNWEGAAHGACHKRSGKWKCFCYFNC (Defensin like) [L10-80]
[4]; [6]
  Activity (1): antifungal activity of the NP against Fusarium graminearium: ++ (++ indicates a >5- to 10-fold improvement)

## DGVKLCERASQTWTGHCGNTKHCDKQCKSWEKAKHGACHVRNGKWKCFCYFNC (Defensin like) [L7-15]
[4]; [5]
  Activity (1): antifungal activity of the NP against Fusarium graminearium: ++ (++ indicates a >5- to 10-fold improvement)

## NLCEKASKTWTGNCGNTKHCDNQCKNWESAAHGACHKRNGKWKCFCYFNC (Defensin like) [L3-79]
[4]; [6]
  Activity (1): antifungal activity of the NP against Fusarium graminearium: ++ (++ indicates a >5- to 10-fold improvement)

## DGVKLCEKPSQTWSHCGNTKHCDNQCKNWEGAAHGACHKRSGKWKCFCYFNC (Defensin like) [L7-231]
[4]; [5]
  Activity (1): antifungal activity of the NP against Fusarium graminearium: ++ (++ indicates a >5- to 10-fold improvement)

## DGVKLCEKPSQTWTGNCGNTKHCDKQCRNWEKAKHGACHKRNGKWKCFCYFNC (Defensin like) [L7-46]
[4]; [5]
  Activity (1): antifungal activity of the NP against Fusarium graminearium: + (+ indicates a 1- to 5-fold improvement in activity compared to a reference defensin protein)

## --QKLCERPSQTWTGHCGNTKHCDKQCKNWEGAKHGACHVRNGKWKCFCYFNC (Defensin like) [L7-89]
[4]; [5]
  Activity (1): antifungal activity of the NP against Fusarium graminearium: + (+ indicates a 1- to 5-fold improvement in activity compared to a reference defensin protein)

## NLCERASKTWTGNCGNTKHCDTKCRSWESAKHGACHKRNGKWKCFCYFNC (Defensin like) [L3-46]
[4]; [6]
  Activity (1): antifungal activity of the NP against Fusarium graminearium: ++ (++ indicates a >5- to 10-fold improvement)

## NLCERASKTWTGNCGNTKHCDNQCRNWESAAHGACHKRSGKWKCFCYFNC (Defensin like) [L3-98]
[4]; [6]
  Activity (1): antifungal activity of the NP against Fusarium graminearium: ++ (++ indicates a >5- to 10-fold improvement)

## DGVKLCEKPSQTWTGHCGNTKHCDKQCKNWEGAKHGACHKRNGKWKCFCYFNC (Defensin like) [L7-178]
[4]; [5]
  Activity (1): antifungal activity of the NP against Fusarium graminearium: ++ (++ indicates a >5- to 10-fold improvement)

## NLCERASKTWTGNCGNTKHCDTQCRSWEGAKHGACHVRNGKHKCFCYFNC (Defensin like) [L6-42]
[4]; [6]
  Activity (1): antifungal activity of the NP against Fusarium graminearium: + (+ indicates a 1- to 5-fold improvement in activity compared to a reference defensin protein)

## ELCERASLTWTGNCGNTKHCDTQCKSWEGAKHGACHKRSGKWKCFCYFNC (Defensin like) [L3-96]
[4]; [6]
  Activity (1): antifungal activity of the NP against Fusarium graminearium: + (+ indicates a 1- to 5-fold improvement in activity compared to a reference defensin protein)
